# Test results from ChEMBL document CHEMBL1201862, “PubChem BioAssay data set” (2004).
#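 Step 1: Grow cells in 96-well plates. Step 2: Expose to compound for 48 hours at 5 concentrations. Step 3: Interpolate endpoints linearly; if unreached, use highest concentration. GI50 is the concentration that inhibits growth by half.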 Active and inactive are the calls of the source. No stated cut-off is given here; in the data, active = GI50 up to about 1.1 µM and inactive = higher.
# Columns and labels:
# Test in all cases: NCI anticancer screen, dose series, 48 h
# OVCAR-3 = tested on: OVCAR-3
# SK-MEL-5 = tested on: SK-MEL-5
# LOX IMVI = tested on: LOX IMVI
# SNB-75 = tested on: SNB-75
# HOP-92 = tested on: HOP-92
# HCC 2998 = tested on: HCC 2998
# SW-620 = tested on: SW-620
# UO-31 = tested on: UO-31
# NCI-H23 = tested on: NCI-H23
# NCI-H522 = tested on: NCI-H522
# ACHN = tested on: ACHN
# Malme-3M = tested on: Malme-3M
# 786-0 = tested on: 786-0
# IGROV-1 = tested on: IGROV-1
# RXF 393 = tested on: RXF 393
# HT-29 = tested on: HT-29
# SNB-19 = tested on: SNB-19
# U-251 = tested on: U-251
Compound,GI50 (OVCAR-3),GI50 (SK-MEL-5),GI50 (LOX IMVI),GI50 (SNB-75),GI50 (HOP-92),GI50 (HCC 2998),GI50 (SW-620),GI50 (UO-31),GI50 (NCI-H23),GI50 (NCI-H522),GI50 (ACHN),GI50 (Malme-3M),GI50 (786-0),GI50 (IGROV-1),GI50 (RXF 393),GI50 (HT-29),GI50 (SNB-19),GI50 (U-251)
COC(=O)C(=O)C(C(=O)C(=O)Nc1cc([N+](=O)[O-])ccc1C#N)c1nc2ccccc2nc1O (stereo not given),> 100 µM (inactive),> 100 µM (inactive),> 100 µM (inactive),> 100 µM (inactive),40.6 µM (inactive),> 100 µM (inactive),> 100 µM (inactive),99.3 µM (inactive),> 100 µM (inactive),> 100 µM (inactive),> 100 µM (inactive),> 100 µM (inactive),> 100 µM (inactive),> 100 µM (inactive),> 100 µM (inactive),> 100 µM (inactive),> 100 µM (inactive),
NC(=S)N/N=C1\C(=O)N(CCc2ccccc2)C(=O)C1C(=O)NCCc1ccccc1 (stereo not given),> 100 µM (inactive),> 100 µM (inactive),> 100 µM (inactive),20.7 µM (inactive),> 100 µM (inactive),> 100 µM (inactive),> 100 µM (inactive),> 100 µM (inactive),> 100 µM (inactive),> 100 µM (inactive),> 100 µM (inactive),> 100 µM (inactive),> 100 µM (inactive),> 100 µM (inactive),> 100 µM (inactive),> 100 µM (inactive),> 100 µM (inactive),> 100 µM (inactive)
COC(=O)c1c(N)n[nH]c1N,> 100 µM (inactive),> 100 µM (inactive),> 100 µM (inactive),> 100 µM (inactive),> 100 µM (inactive),> 100 µM (inactive),> 100 µM (inactive),> 100 µM (inactive),> 100 µM (inactive),> 100 µM (inactive),,,> 100 µM (inactive),> 100 µM (inactive),> 100 µM (inactive),,> 100 µM (inactive),> 100 µM (inactive)
Cc1ccc(/C=C2\CCCCC2=O)cc1,> 100 µM (inactive),91.6 µM (inactive),31.5 µM (inactive),29.6 µM (inactive),,,> 100 µM (inactive),78.9 µM (inactive),> 100 µM (inactive),,48.1 µM (inactive),,> 100 µM (inactive),> 100 µM (inactive),,46.6 µM (inactive),,> 100 µM (inactive)
CC(CCc1ccc2c(c1)c(N)c1ccc(N)cc1[n+]2[O-])CC(C)(C)C (stereo not given),1.73 µM (inactive),1.65 µM (inactive),1.52 µM (inactive),2.07 µM (inactive),,1.55 µM (inactive),1.68 µM (inactive),8.95 µM (inactive),1.31 µM (inactive),,1.73 µM (inactive),1.87 µM (inactive),1.5 µM (inactive),1.49 µM (inactive),2 µM (inactive),1.22 µM (inactive),,1.38 µM (inactive)
CN(CC1NCCCC1O)C12CC3CC(CC(C3)C1)C2 (stereo not given),> 100 µM (inactive),,> 100 µM (inactive),,> 100 µM (inactive),> 100 µM (inactive),> 100 µM (inactive),> 100 µM (inactive),> 100 µM (inactive),> 100 µM (inactive),> 100 µM (inactive),> 100 µM (inactive),> 100 µM (inactive),> 100 µM (inactive),,> 100 µM (inactive),> 100 µM (inactive),> 100 µM (inactive)
CCc1ccccc1NC(=O)CC1NC(=O)CS1 (stereo not given),> 100 µM (inactive),> 100 µM (inactive),> 100 µM (inactive),37.5 µM (inactive),> 100 µM (inactive),> 100 µM (inactive),> 100 µM (inactive),> 100 µM (inactive),> 100 µM (inactive),> 100 µM (inactive),,55.2 µM (inactive),> 100 µM (inactive),> 100 µM (inactive),> 100 µM (inactive),,> 100 µM (inactive),> 100 µM (inactive)
CCCOP1(=O)C=C(C)C(Cl)=C(C)C1 (stereo not given),25.2 µM (inactive),18.7 µM (inactive),13.3 µM (inactive),22.6 µM (inactive),18.4 µM (inactive),54.7 µM (inactive),17.1 µM (inactive),45.3 µM (inactive),16.9 µM (inactive),15 µM (inactive),21.4 µM (inactive),,16.9 µM (inactive),34.6 µM (inactive),18 µM (inactive),22.1 µM (inactive),> 100 µM (inactive),23.2 µM (inactive)
COc1cc(Cl)c2c3c(c(C(=O)c4ccccc4)oc13)CCC2,> 100 µM (inactive),> 100 µM (inactive),> 100 µM (inactive),> 100 µM (inactive),< 0.01 µM (active),> 100 µM (inactive),> 100 µM (inactive),,> 100 µM (inactive),,> 100 µM (inactive),,> 100 µM (inactive),> 100 µM (inactive),62.5 µM (inactive),> 100 µM (inactive),> 100 µM (inactive),> 100 µM (inactive)
